Measured values as given in patent publication US5112754A, “Tissue plasminogen-activating factor and nonoclonal antibody” (Snow Brand Milk Products Co., Ltd., priority 1985, dated 1992).
Values joined by “and” are separate entries in the source; they are usually repeats but may differ in a detail not shown here. Equal entries are not always repeated. Where a SMILES comes first, the peptide text is derived from it. [ ]: non-standard residue; d: D form. The star is where a group is joined. pNA = O=[N+]([O-])c1ccc(N*)cc1

Key:
Type in all cases: biochemical
[1] = target: T1, New type of plasminogen activator (non-urokinase tissue type, IMR-90 t-PA) produced by fibroblasts derived from human fetal lung tissue (Homo sapiens, UniProt P00750); experiment: Km and Vmax for synthetic substrate S-2288, new type of plasminogen activator
T1 construct: Normal fibroblasts of strain IMR-90 (ATCC, CCL-186) derived from human fetal lung tissue were cultured in a serum-free medium; endogenous in cells; host or cells: IMR-90 (ATCC CCL-186) normal human fetal lung fibroblasts; protein purified from the serum-free culture medium

[2] = target: Urokinase (high-molecular type) (Homo sapiens, UniProt P00749); experiment: Km for synthetic substrate S-2288, urokinase high-molecular type; conditions: for comparison
[3] = target: Urokinase (low-molecular type) (Homo sapiens, UniProt P00749); experiment: Vmax for synthetic substrate S-2288, urokinase low-molecular type; conditions: for comparison

T1 sequence (P00750 36-562): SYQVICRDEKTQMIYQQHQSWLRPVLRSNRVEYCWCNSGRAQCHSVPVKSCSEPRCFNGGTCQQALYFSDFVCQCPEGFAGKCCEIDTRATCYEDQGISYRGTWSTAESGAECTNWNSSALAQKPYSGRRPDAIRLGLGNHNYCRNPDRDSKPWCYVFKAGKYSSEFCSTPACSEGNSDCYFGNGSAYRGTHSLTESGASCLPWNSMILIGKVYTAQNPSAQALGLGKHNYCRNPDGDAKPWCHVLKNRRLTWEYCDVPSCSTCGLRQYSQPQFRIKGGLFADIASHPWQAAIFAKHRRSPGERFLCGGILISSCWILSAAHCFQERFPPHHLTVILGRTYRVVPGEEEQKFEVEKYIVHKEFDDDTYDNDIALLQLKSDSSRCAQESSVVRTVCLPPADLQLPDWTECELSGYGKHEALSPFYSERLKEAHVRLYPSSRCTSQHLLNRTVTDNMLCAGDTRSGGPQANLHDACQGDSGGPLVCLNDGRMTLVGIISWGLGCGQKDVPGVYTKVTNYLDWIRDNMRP

Km ([1]; purified new type of plasminogen activator): 1160 µM and ~1160 µM
Vmax for substrate S-2288 ([1]; purified new type of plasminogen activator, Table 1): 1.7 × 10^-8 mol/min-unit
Vmax for substrate S-2288 ([1]; purified plasminogen activator, unit as printed in running text b36): about 1.7×10^-8 mol/liter
Km [2]: 500 µM
Vmax for substrate S-2288 [3]: 5 × 10^-10 mol/min-unit
SMILES: CC[C@@H](C)[C@@H](N)C(=O)N1CCC[C@H]1C(=O)N[C@@H](CCCNC(=N)N)C(=O)Nc1ccc([N+](=O)[O-])cc1 [S-2288, H.D.Ile-Pro-Arg-pNa.2HCl] (H-[dI]-Pro-Arg-pNA)
